Source: patent US5028609A, “Alkyl diamine derivatives” (Alkaloida Vegyeszeti Gyar, priority 1983, dated 1991)

How the values were obtained:
[1] = system: white mice; test: acute intravenous toxicity, method of Litchfield and Wilcoxon; type: in vivo; settings: i.v.
Protocol: (§1) The acute intravenous (i.v.) toxicity values of the testcompounds was determined by the method of Litchfield and Wilcoxon and as test-animals white mice of both sexes were used (J. of Pharmacol. 1949, 96, 99.).

[2] = system: aconitine arrhythmia on rats; test: preventive aconitine arrhythmia test on rats; type: in vivo, rats of Wistar strain; settings: for arrhythmia appearance time: ± S.E., 30 min monitoring; for responders at 4 mg/kg: read-out: positive cases, 4.0 mg/kg i.v., 2 min before aconitine
Protocol: The antiarrhythmic activity of the compounds of the Formula I was compared in a preventive aconitine arrhythmia test on rats as follows:
rats of Wistar strain weighing 200 to 250 g. were narcotized i.p. with 1.25 g./kg. of urethane and their ECG was registered by a Hellige equipment by II standard limb head.
Arrhythmia was induced by an i.v. infusion of 30 /ug/kg. aconitine nitrate whereafter the ECG was continuously monitored for 30 minutes.
Those cases were considered positive, where within 30 minutes after the aconitine infusion not a single phase of the arrhythmia occurred.
In control animals pretreated i.v. with a 0.9% sodium chloride solution (0.1 ml./100 g.) (n=20) the arrhythmogenic activity of the aconitine nitrate appeared after 2.88±0.32 minutes.
Per cent values of the positive cases, average time of the appearance of the arrhythmia-when the induced arrhythmia appeared within 30 minutes and toxicity values are shown.

[3] = system: arrhythmia in rats; test: arrhythmia test carried out in rats according to Zetler and Strubelt (ED125, ED150); type: in vivo; settings: Rattus norvegicus, iv
Protocol: In cases of compounds having outstanding antiarrhythmic activity ED125 and ED150 values were calculated in arrhythmia test carried out in rats according to Zetler and Strubelt (Arzneim.-Forsch.) Drug.

[4] = acute intravenous toxicity, method of Litchfield and Wilcoxon; type: in vivo; settings: mouse, in vivo, iv, mice
Protocol: as §1

[5] = Rattus norvegicus, iv, 0.5 h, no arrhythmia within 30 min = positive

SMILES	LD50 [1]	ED125 [3]	ED150 [3]	arrhythmia appearance time ([2]; 4.0 mg/kg i.v.)	responders at 4 mg/kg [2, 5]	also measured
COc1cc(C(=O)NCCCNC(=O)C2=CC(C)(C)NC2(C)C)cc(OC)c1OC [I/2]	119 mg/kg	7.6 mg/kg	12.3 mg/kg	–	–	arrhythmia appearance time ([2]; 12.0 mg/kg i.v.): 16.7 ± 1.7 min; responders at 12 mg/kg ([2]; Rattus norvegicus, iv, 0.5 h, read-out: positive cases, 12.0 mg/kg i.v., 2 min before aconitine, no arrhythmia within 30 min = positive): 70%
CC=Cc1ccc(OCC(=O)NCCCNC(=O)C2=CC(C)(C)NC2(C)C)c(OC)c1 [I/8]	–	1.5 mg/kg	2.2 mg/kg	–	–	LD50 [4]: 30 mg/kg; arrhythmia appearance time ([2]; 3.0 mg/kg i.v.): > 30 min; responders at 3 mg/kg ([2]; Rattus norvegicus, iv, 0.5 h, read-out: positive cases, 3.0 mg/kg i.v., 2 min before aconitine, no arrhythmia within 30 min = positive): 100%
C=CCc1ccc(OCC(=O)NCCCNC(=O)C2=CC(C)(C)NC2(C)C)c(OC)c1 [I/9, N-(2-methoxy-4-allyl)-phenoxy-acetyl-N'-(2,2,5,5-tetramethyl-3-pyrroline-3-carbonyl)-1,3-propylene-diamine]	19 mg/kg	0.7 mg/kg	1.4 mg/kg	–	–	arrhythmia appearance time ([2]; 1.9 mg/kg i.v.): > 30 min; responders at 1.9 mg/kg ([2]; Rattus norvegicus, iv, 0.5 h, read-out: positive cases, 1.9 mg/kg i.v., 2 min before aconitine, no arrhythmia within 30 min = positive): 100%
C=CCc1cc(C)ccc1OCC(=O)NCCCNC(=O)C1=CC(C)(C)NC1(C)C [I/11]	14 mg/kg	1.4 mg/kg	2.4 mg/kg	–	–	arrhythmia appearance time ([2]; 1.4 mg/kg i.v.): 20.1 ± 2.5 min; responders at 1.4 mg/kg ([2]; Rattus norvegicus, iv, 0.5 h, read-out: positive cases, 1.4 mg/kg i.v., 2 min before aconitine, no arrhythmia within 30 min = positive): 80%
CC1(C)C=C(C(=O)NCCCNC(=O)CSc2ccccc2)C(C)(C)N1 [I/12]	38 mg/kg	4.6 mg/kg	6.95 mg/kg	28.5 min	90%	–
CC1(C)C=C(C(=O)NCCCNC(=O)Cc2cccs2)C(C)(C)N1 [I/19]	71 mg/kg	2 mg/kg	3.1 mg/kg	–	–	arrhythmia appearance time ([2]; 7.0 mg/kg i.v.): 27.5 ± 2.5 min; responders at 7 mg/kg ([2]; Rattus norvegicus, iv, 0.5 h, read-out: positive cases, 7.0 mg/kg i.v., 2 min before aconitine, no arrhythmia within 30 min = positive): 80%
CC=Cc1ccc(OCC(=O)NCCNC(=O)C2=CC(C)(C)NC2(C)C)c(OC)c1 [I/21]	–	2.4 mg/kg	4.1 mg/kg	> 30 min	100%	LD50 [4]: 18 mg/kg
CC=Cc1ccc(OC(C)C(=O)NCCCNC(=O)C2=CC(C)(C)NC2(C)C)c(OC)c1 (stereo not drawn) [I/22]	–	1.9 mg/kg	2.7 mg/kg	> 30 min	100%	LD50 [4]: 14 mg/kg
CC1(C)C=C(C(=O)NCCNCc2cccs2)C(C)(C)N1 [I/36]	–	4.5 mg/kg	7.6 mg/kg	15.9 ± 0.3 min	70%	LD50 [4]: 49 mg/kg
CC1(C)C=C(C(=O)NCCCNCc2ccccc2)C(C)(C)N1 [I/38]	26 mg/kg	2.2 mg/kg	3.6 mg/kg	27.5 min	90%	–
CC1(C)C=C(C(=O)NCCCNCc2cccs2)C(C)(C)N1 [I/44]	–	–	–	–	–	responders at 6.5 mg/kg ([2]; Rattus norvegicus, iv, 0.5 h, read-out: positive cases, 6.5 mg/kg i.v., 2 min before aconitine, no arrhythmia within 30 min = positive): 100%
CC1(C)C=C(C(=O)NCCCCNCc2cccs2)C(C)(C)N1 [I/49]	28 mg/kg	2.3 mg/kg	4.7 mg/kg	–	–	arrhythmia appearance time ([2]; 2.8 mg/kg i.v.): 10.0 min; responders at 2.8 mg/kg ([2]; Rattus norvegicus, iv, 0.5 h, read-out: positive cases, 2.8 mg/kg i.v., 2 min before aconitine, no arrhythmia within 30 min = positive): 90%
CC1(C)CC(C(=O)NCCCNCc2cccs2)C(C)(C)N1 (stereo not drawn) [I/50]	43 mg/kg	2.7 mg/kg	4.2 mg/kg	–	–	arrhythmia appearance time ([2]; 4.3 mg/kg i.v.): 30 min; responders at 4.3 mg/kg ([2]; Rattus norvegicus, iv, 0.5 h, read-out: positive cases, 4.3 mg/kg i.v., 2 min before aconitine, no arrhythmia within 30 min = positive): 100%
CC1(C)CC(C(=O)NCCCNCc2ccc(C(F)(F)F)cc2)C(C)(C)N1 (stereo not drawn) [I/52]	39 mg/kg	2.1 mg/kg	2.9 mg/kg	7.3 min	90%	–
CC1(C)C=C(C(=O)NCCCNCc2ccsc2)C(C)(C)N1 [I/53]	28 mg/kg	3.4 mg/kg	5.5 mg/kg	30 min	100%	–
CC1(C)CC(C(=O)NCCCNCc2ccsc2)C(C)(C)N1 (stereo not drawn) [I/54]	19 mg/kg	6.9 mg/kg	13.2 mg/kg	5.2 ± 0.8 min	70%	–
CC1(C)C=C(C(=O)NCCCN2C(=O)C3CC=CCC3C2=O)C(C)(C)N1 (stereo not drawn) [I/58]	113 mg/kg	–	–	–	–	arrhythmia appearance time ([2]; 11.3 mg/kg i.v.): 13.1 ± 2.5 min; responders at 11.3 mg/kg ([2]; Rattus norvegicus, iv, 0.5 h, read-out: positive cases, 11.3 mg/kg i.v., 2 min before aconitine, no arrhythmia within 30 min = positive): 50%
CC1(C)C=C(C(=O)NCCN2C(=O)c3ccccc3C2=O)C(C)(C)N1 [I/59]	55 mg/kg	4.2 mg/kg	7.9 mg/kg	–	–	arrhythmia appearance time ([2]; 5.5 mg/kg i.v.): 30 min; responders at 5.5 mg/kg ([2]; Rattus norvegicus, iv, 0.5 h, read-out: positive cases, 5.5 mg/kg i.v., 2 min before aconitine, no arrhythmia within 30 min = positive): 100%
CC1(C)C=C(C(=O)NCCCN2C(=O)c3ccccc3C2=O)C(C)(C)N1 [I/60]	23 mg/kg	1.4 mg/kg	2.6 mg/kg	–	–	arrhythmia appearance time ([2]; 2.3 mg/kg i.v.): 26.0 min; responders at 2.3 mg/kg ([2]; Rattus norvegicus, iv, 0.5 h, read-out: positive cases, 2.3 mg/kg i.v., 2 min before aconitine, no arrhythmia within 30 min = positive): 90%
CC1(C)C=C(C(=O)NCC(O)CN2C(=O)c3ccccc3C2=O)C(C)(C)N1 (stereo not drawn) [I/61]	28 mg/kg	1.9 mg/kg	3 mg/kg	30 min	100%	–
CC1(C)CC(C(=O)NCCCN2C(=O)c3ccccc3C2=O)C(C)(C)N1 (stereo not drawn) [I/62]	22 mg/kg	2.6 mg/kg	4.5 mg/kg	30 min	100%	–
CC1(C)C=C(C(=O)NCCCNC(=O)c2ccccc2C(=O)O)C(C)(C)N1 [I/68, N-(2,2,5,5-tetramethyl-3-pyrroline-3-carbonyl)-N'-(2-carboxybenzoyl)-1,3-diaminopropane]	419 mg/kg	–	–	–	–	arrhythmia appearance time ([2]; 41.9 mg/kg i.v.): 4.6 ± 0.7 min; responders at 41.9 mg/kg ([2]; Rattus norvegicus, iv, 0.5 h, read-out: positive cases, 41.9 mg/kg i.v., 2 min before aconitine, no arrhythmia within 30 min = positive): 40%
Cc1nc2ccccc2c(=O)n1CCCNC(=O)C1=CC(C)(C)NC1(C)C [I/70, 2-Methyl-3-[3-(2,2,5,5-tetramethyl-3-pyrroline-3-carbonyl-amino)-propyl]-quinazoline-4(3H)-one]	31 mg/kg	2.5 mg/kg	4.5 mg/kg	30 min	100%	–
CCc1nc2ccccc2c(=O)n1CCNC(=O)C1=CC(C)(C)NC1(C)C [I/71]	48 mg/kg	3.8 mg/kg	10.5 mg/kg	30 min	100%	–
CCc1nc2ccccc2c(=O)n1CCCNC(=O)C1=CC(C)(C)NC1(C)C [I/72]	13 mg/kg	1.1 mg/kg	1.7 mg/kg	30 min	100%	–
CCc1nc2ccccc2c(=O)n1CCCNC(=O)C1CC(C)(C)NC1(C)C (stereo not drawn) [I/74]	22 mg/kg	1.9 mg/kg	2.7 mg/kg	30 min	100%	–
CCN(CC)CCNC(=O)c1ccc(N)cc1 [procainamide, reference compound]	–	11 mg/kg	14 mg/kg	–	–	LD50 [4]: 141 mg/kg; arrhythmia appearance time ([2]; 8.0 mg/kg i.v.): 9.5 ± 1.2 min; responders at 8 mg/kg ([2]; Rattus norvegicus, iv, 0.5 h, read-out: positive cases, 8.0 mg/kg i.v., 2 min before aconitine, no arrhythmia within 30 min = positive): 30%
C=C[C@H]1C[N@@]2CC[C@H]1C[C@@H]2[C@@H](O)c1ccnc2ccc(OC)cc12 [quinidine, reference compound]	–	7.8 mg/kg	10.8 mg/kg	–	–	LD50 [4]: 95 mg/kg; arrhythmia appearance time ([2]; 9.5 mg/kg i.v.): 10.0 ± 0.4 min; responders at 9.5 mg/kg ([2]; Rattus norvegicus, iv, 0.5 h, read-out: positive cases, 9.5 mg/kg i.v., 2 min before aconitine, no arrhythmia within 30 min = positive): 70%
